# Measurements reported in US6737383B1, “Herbicidal oxadiazolidines” (priority 1999, dated 2004).
# Experiments:
# sugar beet = assay: Test B pre/postemergence sugar beet; type: in vivo, Beta vulgaris
# Outline: (§1)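 Herbicidal effect was estimated by eye on a ten-point control scale after plants spent twelve to sixteen days in a greenhouse following soil or foliar treatment. Foliar sprays targeted plants at one to four leaves; all doses were formulated in a non-phytotoxic solvent with surfactant.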
# purple nutsedge = assay: Test B pre/postemergence purple nutsedge; type: in vivo, Cyperus rotundus
# Outline: as §1
# wheat = assay: Test B pre/postemergence wheat; type: in vivo, Triticum aestivum; conditions: for Plant response rating, Wheat: Postemergence
# Outline: as §1
# rape = assay: Test B pre/postemergence rape; type: in vivo, Brassica napus
# Outline: as §1
# morningglory = assay: Test B pre/postemergence morningglory; type: in vivo, Ipomoea hederacea
# Outline: as §1
# wild oat = assay: Test B pre/postemergence wild oat; type: in vivo, Avena fatua; conditions: for Plant response rating, Wild oats: Postemergence
# Outline: as §1
# cocklebur = assay: Test B pre/postemergence cocklebur; type: in vivo, Xanthium strumarium
# Outline: as §1
# blackgrass = assay: Test B pre/postemergence blackgrass; type: in vivo, Alopecurus myosuroides
# Outline: as §1
# surinam grass = assay: Test B pre/postemergence surinam grass; type: in vivo, Brachiaria decumbens
# Outline: as §1
# velvetleaf = assay: Test B pre/postemergence velvetleaf; type: in vivo, Abutilon theophrasti; conditions: for Plant response rating, Velvetleaf: Postemergence
# Outline: as §1
# corn = assay: Test B pre/postemergence corn; type: in vivo, Zea mays
# Outline: as §1
# giant foxtail = assay: Test B pre/postemergence giant foxtail; type: in vivo, Setaria faberii
# Outline: as §1
# pigweed = assay: Test B pre/postemergence pigweed; type: in vivo, Amaranthus retroflexus; conditions: for Plant response rating, Redroot pigweed: Postemergence
# Outline: as §1
# soybean = assay: Test B pre/postemergence soybean; type: in vivo, Glycine max; conditions: for Plant response rating, Soybean: Postemergence
# Outline: as §1
# bedstraw = assay: Test B pre/postemergence bedstraw; type: in vivo, Galium aparine; conditions: Preemergence
# Outline: as §1
# crabgrass = assay: Test B pre/postemergence crabgrass; type: in vivo, Digitaria sanguinalis
# Outline: as §1
# [1] = Preemergence, Rate 62 g/ha, scale 0 to 10 (0 no effect, 10 complete control)
# [2] = Preemergence, Rate 125 g/ha, scale 0 to 10, 0 is no effect, 10 is complete control
# [3] = Preemergence, Rate 500 g/ha, scale of 0 to 10 where 0 is no effect and 10 is complete control
# [4] = Rate 250 g/ha, Postemergence, scale of 0 to 10 where 0 is no effect and 10 is complete control
# [5] = Postemergence, Rate 62 g/ha, scale of 0 to 10, 0 is no effect, 10 is complete control
# [6] = Postemergence, Rate 125 g/ha, scale 0 to 10, 0 is no effect, 10 is complete control
# [7] = Rate 500 g/ha, scale of 0 to 10 where 0 is no effect and 10 is complete control
# [8] = Rate 250 g/ha, scale of 0 to 10 where 0 is no effect and 10 is complete control
# [9] = Postemergence, Rate 500 g/ha, scale of 0 to 10 where 0 is no effect and 10 is complete control
smiles,measurement,setting,value
CC(Cl)=CCn1c(=O)on(C(=O)N(c2ccccc2)C(C)C)c1=O [Compound 573],Sugarbeets plant response rating,sugar beet; [1],0
same,Sugarbeets plant response rating,sugar beet; [2],2
same,Sugarbeets plant response rating (0 to 10 scale),"sugar beet; Preemergence, Rate 250 g/ha",2
same,Sugarbeets plant response rating,sugar beet; [3],2
same,"Plant response rating, Sugarbeets",sugar beet; [4],0
same,Nutsedge plant response rating,purple nutsedge; [5],0
same,Nutsedge plant response rating,purple nutsedge; [6],0
same,Nutsedge plant response rating,purple nutsedge; [1],0
same,Nutsedge plant response rating,purple nutsedge; [2],0
same,Nutsedge plant response rating (0 to 10 scale),"purple nutsedge; Preemergence, Rate 250 g/ha",0
same,Nutsedge plant response rating,purple nutsedge; [3],0
same,"Plant response rating, Nutsedge",purple nutsedge; [4],0
same,"Plant response rating, Wheat",wheat; [7],0
same,Wheat plant response rating,wheat; [1],0
same,Wheat plant response rating,wheat; [2],0
same,Wheat plant response rating (0 to 10 scale),"wheat; Preemergence, Rate 250 g/ha",0
same,Wheat plant response rating,wheat; [3],0
same,"Plant response rating, Wheat",wheat; [8],0
same,Rape plant response rating,rape; [5],0
same,Rape plant response rating,rape; [6],2
same,"Plant response rating, Rape",rape; [9],2
same,Rape plant response rating,rape; [1],2
same,Rape plant response rating,rape; [2],2
same,Rape plant response rating (0 to 10 scale),"rape; Preemergence, Rate 250 g/ha",3
same,Rape plant response rating,rape; [3],3
same,"Plant response rating, Rape",rape; [4],3
same,Morningglory plant response rating,morningglory; [5],10
same,Morningglory plant response rating,morningglory; [6],10
same,"Plant response rating, Morningglory",morningglory; [9],10
same,Morningglory plant response rating,morningglory; [1],0
same,Morningglory plant response rating,morningglory; [2],0
same,Morningglory plant response rating (0 to 10 scale),"morningglory; Preemergence, Rate 250 g/ha",0
same,Morningglory plant response rating,morningglory; [3],4
same,"Plant response rating, Morningglory",morningglory; [4],10
same,"Plant response rating, Wild oats",wild oat; [7],0
same,Wild oats plant response rating,wild oat; [1],0
same,Wild oats plant response rating,wild oat; [2],0
same,Wild oats plant response rating (0 to 10 scale),"wild oat; Preemergence, Rate 250 g/ha",0
same,Wild oats plant response rating,wild oat; [3],0
same,"Plant response rating, Wild oats",wild oat; [8],0
same,Cocklebur plant response rating,cocklebur; [5],0
same,Cocklebur plant response rating,cocklebur; [6],0
same,"Plant response rating, Cocklebur",cocklebur; [9],3
same,Cocklebur plant response rating,cocklebur; [1],0
same,Cocklebur plant response rating,cocklebur; [2],0
same,Cocklebur plant response rating (0 to 10 scale),"cocklebur; Preemergence, Rate 250 g/ha",0
same,Cocklebur plant response rating,cocklebur; [3],0
same,"Plant response rating, Cocklebur",cocklebur; [4],2
same,Blackgrass plant response rating,blackgrass; [5],0
same,Blackgrass plant response rating,blackgrass; [6],0
same,"Plant response rating, Blackgrass",blackgrass; [9],0
same,Blackgrass plant response rating,blackgrass; [1],0
same,Blackgrass plant response rating,blackgrass; [2],0
same,Blackgrass plant response rating (0 to 10 scale),"blackgrass; Preemergence, Rate 250 g/ha",2
same,Blackgrass plant response rating,blackgrass; [3],6
same,"Plant response rating, Blackgrass",blackgrass; [4],0
same,B. signalgrass plant response rating,surinam grass; [5],0
same,B. signalgrass plant response rating,surinam grass; [6],0
same,"Plant response rating, B. signalgrass",surinam grass; [9],0
same,B. signalgrass plant response rating,surinam grass; [1],7
same,B. signalgrass plant response rating,surinam grass; [2],7
same,"B. signalgrass plant response rating (0 to 10 scale, 0 is no effect, 10 is complete control)","surinam grass; Preemergence, Rate 250 g/ha",9
same,B. signalgrass plant response rating,surinam grass; [3],10
same,"Plant response rating, B. signalgrass",surinam grass; [4],0
same,"Plant response rating, Velvetleaf",velvetleaf; [7],2
same,Velvetleaf plant response rating,velvetleaf; [1],0
same,Velvetleaf plant response rating,velvetleaf; [2],0
same,Velvetleaf plant response rating (0 to 10 scale),"velvetleaf; Preemergence, Rate 250 g/ha",0
same,Velvetleaf plant response rating,velvetleaf; [3],3
same,"Plant response rating, Velvetleaf",velvetleaf; [8],0
same,Corn plant response rating,corn; [5],0
same,Corn plant response rating,corn; [6],0
same,"Plant response rating, Corn",corn; [9],0
same,Corn plant response rating,corn; [1],0
same,Corn plant response rating,corn; [2],0
same,Corn plant response rating (0 to 10 scale),"corn; Preemergence, Rate 250 g/ha",0
same,Corn plant response rating,corn; [3],3
same,"Plant response rating, Corn",corn; [4],0
same,Giant foxtail plant response rating,giant foxtail; [5],2
same,Giant foxtail plant response rating,giant foxtail; [6],3
same,"Plant response rating, Giant foxtail",giant foxtail; [9],9
same,Giant foxtail plant response rating,giant foxtail; [1],9
same,Giant foxtail plant response rating,giant foxtail; [2],9
same,Giant foxtail plant response rating (0 to 10 scale),"giant foxtail; Preemergence, Rate 250 g/ha",9
same,Giant foxtail plant response rating,giant foxtail; [3],10
same,"Plant response rating, Giant foxtail",giant foxtail; [4],9
same,"Plant response rating, Redroot pigweed",pigweed; [7],7
same,Redroot pigweed plant response rating,pigweed; [1],0
same,Redroot pigweed plant response rating,pigweed; [2],0
same,Redroot pigweed plant response rating (0 to 10 scale),"pigweed; Preemergence, Rate 250 g/ha",9
same,Redroot pigweed plant response rating,pigweed; [3],9
same,"Plant response rating, Redroot pigweed",pigweed; [8],4
same,"Plant response rating, Soybean",soybean; [7],6
same,Soybean plant response rating,soybean; [1],0
same,Soybean plant response rating,soybean; [2],0
same,Soybean plant response rating (0 to 10 scale),"soybean; Preemergence, Rate 250 g/ha",0
same,Soybean plant response rating,soybean; [3],0
same,"Plant response rating, Soybean",soybean; [8],4
same,Bedstraw plant response rating,"bedstraw; Rate 62 g/ha, scale 0 to 10 (0 no effect, 10 complete control)",0
same,Bedstraw plant response rating,"bedstraw; Rate 125 g/ha, scale 0 to 10, 0 is no effect, 10 is complete control",0
same,Bedstraw plant response rating (0 to 10 scale),bedstraw; Rate 250 g/ha,0
same,Bedstraw plant response rating,bedstraw; [7],0
same,Crabgrass plant response rating,crabgrass; [5],6
same,Crabgrass plant response rating,crabgrass; [6],9
same,"Plant response rating, Crabgrass",crabgrass; [9],9
same,Crabgrass plant response rating,crabgrass; [1],3
same,Crabgrass plant response rating,crabgrass; [2],9
same,Crabgrass plant response rating (0 to 10 scale),"crabgrass; Preemergence, Rate 250 g/ha",9
same,Crabgrass plant response rating,crabgrass; [3],10
same,"Plant response rating, Crabgrass",crabgrass; [4],9
